Assay results published in paper PMC5374710, “Discovery of the first dual GSK3β inhibitor/Nrf2 inducer. A new multitarget therapeutic strategy for Alzheimer’s disease” (Scientific Reports, 2017).

Legend:
HO-1 = HO-1 expression in AREc32 cells after scramble or GSK3β siRNA (western blot); assay type: cell-based, human; details: 10 μM, 24 h
Method: To further evaluate the potential relationship between GSK3β inhibition and the Nrf2 induction properties we used two different approaches. […] Cells were treated with compound 5m at increasing concentrations alone or in presence of Li (10 mM) during 24 h and thereafter, luciferase activity was evaluated. […] Secondly, to corroborate the independence of the Nrf2 induction properties of our derivatives from their GSK3β inhibitory properties, we used GSK3β knock down experimental conditions using siRNA. […] After knockdown of GSK3β, AREc32 cells were incubated with compound 5m (10 μM) during 24 h (Fig. 4B). Subsequently, luciferase activity and HO-1 expression were analyzed. […] Similar results were obtained when HO-1 expression was analyzed (Fig. 4D), compound 5m increased HO-1 expression 3.9 times after scramble treatment and 3.5 times after knockdown of GSK3β showing no statistical differences between both conditions. […]
Figure 4 Nrf2 induction properties are independent of the GSK3β inhibitory activity. […] (D) HO-1 expression induced by compound 5m (10 μM) measured at the same experimental conditions used previously. Values are expressed as mean ± SEM of three independent experiments in duplicate. ^###p < 0.001; ^##p < 0.01; ^#p < 0.05 compared to the correspondent basal conditions. […]

NOX = NOX activity assay in LPS-stimulated glial cultures (lucigenin); assay type: cell-based, rat; details: 10 to 60 μM, 4 h stimulation with LPS 1 μg/mL, p < 0.01
Method: TNFα is considered one of the most important pro-inflammatory cytokines. […] The production of TNFα induced by LPS was reduced by 33% at 10 μM and by 50% at 30 μM. […] To further confirm the anti-inflammatory potential of compound 5c we measured the expression of thre NOX2 enzyme, since this isoform has been widely described as being specific tomicroglial cells. As depicted in Fig. 6F, LPS (1 μg/mL) stimulation of primary glial cultures during 24 h increased the expression of NOX2 by 65.3% (p < 0.01) compared to basal conditions.
Figure 6 Nitrites (A), TNFα (B), iNOS (C) and NOX activity (E) blockade (D) and NOX2 production (F) by 5c in primary glial cultures stimulated with LPS (1 μg/mL), HO-1 expression induced by this compound after 24 h. […] NOX activity was measured after 4 h co-treatment with LPS and compound 5c. […]
Cells were pre-incubated with increasing concentrations of the compound. […] Then, treatments were removed and NADPH oxidase activity was assessed by measuring O2^− production in the presence of the substrate, NADPH (100 μM) as lucigenin-enhanced chemiluminiscence (5 μM lucigenin). No enzymatic activity was detected in the absence of NADPH. Luminescence was recorded 29 times every 1.8 seconds for each well in a luminometer, and NADPH oxidase activity was expressed as relative light units (RLU)/min normalized to basal value. […]

Row | SMILES | HO-1 expression increase (HO-1; after knockdown of GSK3β) [times] | HO-1 expression increase (HO-1; after scramble treatment) [times] | Reduction of NOX activity (NOX)
1 | Cc1[nH]nc2c1C(c1ccc(Br)cc1)C(C#N)=C(N)O2 (stereo not drawn) [Compound 5m, 6-Amino-4-(4-bromophenyl)-3-methyl-2,4-dihydropyrano[2,3-c]pyrazole-5-carbonitrile] | 3.5 | 3.9 | 
2 | COc1cccc(C2C(C#N)=C(N)Oc3n[nH]c(C)c32)c1 (stereo not drawn) [Compound 5c, 6-Amino-4-(3-methoxyphenyl)-3-methyl-2,4-dihydropyrano[2,3-c]pyrazole-5-carbonitrile] |  |  | significantly reduce
